{"source": "patent US20240156838A1", "about": "“Contraceptive Compositions and Methods for Improved Efficacy and Modulation of Side Effects” (Agile Therapeutics, Inc., priority 2015, published 2024)", "key": {"[1]": {"target": "T1, SHBG (Homo sapiens, UniProt P04278)", "T1 sequence (P04278 30-402)": "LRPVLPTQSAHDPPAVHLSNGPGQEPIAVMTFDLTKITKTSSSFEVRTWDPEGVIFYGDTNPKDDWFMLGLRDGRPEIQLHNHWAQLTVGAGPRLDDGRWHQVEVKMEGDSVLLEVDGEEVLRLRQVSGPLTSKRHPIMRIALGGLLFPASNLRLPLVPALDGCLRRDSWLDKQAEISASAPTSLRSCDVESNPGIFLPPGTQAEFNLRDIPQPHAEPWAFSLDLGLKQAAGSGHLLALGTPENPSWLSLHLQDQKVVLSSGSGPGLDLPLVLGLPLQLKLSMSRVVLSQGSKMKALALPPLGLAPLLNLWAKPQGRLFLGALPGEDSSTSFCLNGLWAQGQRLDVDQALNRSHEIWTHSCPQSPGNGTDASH", "conditions": "cited from earlier work; for binding affinity for SHBG: Phillips 1990, Steroids"}, "[2]": {"conditions": "in vivo; cited from earlier work"}, "[3]": {"target": "T1, SHBG", "conditions": "cited from earlier work"}, "[4]": {"test": "Second clinical trial of LNG plus EE transdermal patches (Example 2): serum/plasma LNG and EE levels", "conditions": "clinical data of LNG plus EE patches versus LNG-only patches"}, "[5]": {"conditions": "cited from earlier work; for unenhanced flux: without chemical enhancers"}, "[6]": {"test": "In vitro skin permeation of LNG from patches, Franz diffusion cells", "type": "in vitro ADME, human", "conditions": "comparison in words", "method": "The objective of this study was to compare in vitro skin permeation of LNG through human cadaver skin from a patch containing both EE and LNG (Patch of column 4, Table 1) with a patch containing only LNG (patch in column 2, Table 1).\nOnly one (1) skin donor was used in these in vitro skin permeation experiments (split thickness dermatomed approximately at […] human cadaver skin). All in vitro skin permeation studies were conducted using the PermeGear Membrane Transport System. Each Membrane Transport System consisted of vertical, jacketed (37° C.±0.5° C.) Franz diffusion cells with magnetic stirrer, 2 chamber (donor and receiver) sets of 6 units, orifice diameter 15 mm, effective permeation surface area 1.767 cm^2. Each cell was prepared by cutting the skin samples into approximately 3 cm×3 cm squares and mounting them on the top of the receiver compartment of Franz cells. Patches to be tested were placed on the stratum corneum surface of the skin and the donor and receiver compartments of the diffusion cells were then clamped in place. The receiver compartment was then filled with approximately 12 mL of receiver medium/receptor solution (Phosphate Buffered Saline (PBS)+0.5% Oleth 20+0.008% Gentamicin, pH 7.3), tilting to make sure the receiver medium and the skin/solution interface was free of any air bubbles.\nSkin flux studies were run for a period of 168 hours. […]"}, "[7]": {"conditions": "human, in vivo"}, "[8]": {"conditions": "Victor et al., J. Clin. Endocrinol. Metab. 43: 244"}}, "note": "Read-outs that look alike come from different tables or passages of the source."}
{"compound": "CC(=O)O[C@]1(C(C)=O)CC[C@H]2[C@@H]3C[C@H](C)C4=CC(=O)CC[C@]4(C)[C@H]3CC[C@@]21C", "note": "[medroxyprogesterone acetate]", "values": [{"measurement": "binding affinity to SHBG", "setting": "[1]; Pollow 1989, Contraception", "value": "lesser binding affinity"}, {"measurement": "binding affinity to SHBG", "setting": "[1]; Schoultz 1989", "value": "lesser binding affinity"}]}
{"compound": "C[C@]12CC[C@@H]3c4ccc(O)cc4CC[C@H]3[C@@H]1CC[C@@H]2O", "note": "[17-beta estradiol, 17-beta-estradiol]", "values": [{"measurement": "oral bioavailability", "setting": "[2]", "value": "less than 10%"}]}
{"compound": "CC(=O)O[C@]1(C(C)=O)CC[C@H]2[C@@H]3C=C(Cl)C4=CC(=O)[C@@H]5C[C@@H]5[C@]4(C)[C@H]3CC[C@@]21C", "note": "[cyproterone acetate]", "values": [{"measurement": "binding affinity to SHBG", "setting": "[1]; Pollow 1989, Contraception", "value": "lesser binding affinity"}]}
{"compound": "C#C[C@]1(O)CC[C@H]2[C@@H]3CCC4=CCCC[C@@H]4[C@H]3CC[C@@]21C", "note": "[lynestrenol]", "values": [{"measurement": "binding affinity to SHBG", "setting": "[1]; [8]", "value": "higher affinity for SHBG than EE"}]}
{"compound": "C#C[C@]1(O)CC[C@H]2[C@@H]3CCC4=CC(=O)CC[C@@H]4[C@H]3CC[C@@]21C", "note": "[norethisterone]", "values": [{"measurement": "binding affinity to SHBG", "setting": "[1]; Schoultz 1989", "value": "high binding affinity"}, {"measurement": "binding affinity to SHBG", "setting": "[1]; [8]", "value": "higher affinity for SHBG than EE"}]}
{"compound": "C#C[C@]1(O)CC[C@H]2[C@@H]3CCC4=CCCC[C@@H]4[C@H]3C(=C)C[C@@]21CC", "note": "[desogestrel]", "values": [{"measurement": "binding affinity to SHBG", "setting": "[1]; Pollow 1989, Contraception", "value": "lesser binding affinity"}, {"measurement": "binding affinity to SHBG", "setting": "[1]; Schoultz 1989", "value": "lesser binding affinity"}]}
{"compound": "C#C[C@]1(O)CC[C@H]2[C@@H]3CCc4cc(O)ccc4[C@H]3CC[C@@]21C", "note": "[EE, ethinyl estradiol]", "values": [{"measurement": "IC50", "setting": "[3]; Hong et al., 2015, read-out: IC50 in testosterone displacement assay", "value": 790, "unit": "nM"}, {"measurement": "IC50", "setting": "[3]; according to Hong (2015), read-out: IC50 (affinity for SHBG)", "value": 800, "unit": "nM"}, {"measurement": "oral bioavailability", "setting": "[2]", "value": 95, "unit": "%"}, {"measurement": "increase of LNG plasma levels by addition of EE relative to addition of an equivalent amount of LNG", "setting": "[4]", "value": "about ten"}]}
{"compound": "C=C1C[C@H]2[C@@H]3CCC4=CC(=O)CC[C@@H]4[C@H]3CC[C@]2(C)[C@@]1(OC(C)=O)C(C)=O", "note": "[nesterone]", "values": [{"measurement": "enhanced flux", "setting": "[5]; with chemical enhancers, from cited patents", "value": 0.01, "unit": "micrograms/cm^2/hr"}, {"measurement": "unenhanced flux", "setting": "[5]; from cited patents", "value": 0.005, "unit": "micrograms/cm^2/hr"}]}
{"compound": "medroxyprogesterone", "values": [{"measurement": "binding affinity to SHBG", "setting": "[1]; [8]", "value": "do not have high binding affinity"}]}
{"compound": "C#C[C@]1(O)CC[C@H]2[C@@H]3CCC4=CC(=O)CC[C@@H]4[C@H]3CC[C@@]21CC", "note": "[d-norgestrel]", "values": [{"measurement": "binding affinity to SHBG", "setting": "[1]; [8]", "value": "higher affinity for SHBG than EE"}]}
{"compound": "C#C[C@]1(O)CC[C@H]2[C@@H]3CCC4=CC(=O)CC[C@@H]4[C@H]3CC[C@@]21CC", "note": "[LNG, levonorgestrel]", "values": [{"measurement": "permeation/release of LNG through human skin, LNG-only versus LNG plus EE patches", "setting": "[6]", "value": "not affected by the presence of EE"}, {"measurement": "mean serum concentration of LNG, value extrapolated from the data collected", "setting": "[7]", "value": 1420, "unit": "picograms per milliliter"}]}
{"compound": "C#C[C@]1(OC(C)=O)CC[C@H]2[C@@H]3CCC4=CC(=O)CC[C@@H]4[C@H]3CC[C@@]21C", "note": "[norethisterone acetate]", "values": [{"measurement": "unenhanced flux", "setting": "[5]; from cited patents", "value": 0.05, "unit": "micrograms/cm^2/hr"}]}
{"compound": "C#C[C@]1(OC(C)=O)CC[C@H]2[C@@H]3CCC4=CC(=NO)CC[C@@H]4[C@H]3CC[C@@]21CC", "note": "(mixture of isomers) [norgestimate]", "values": [{"measurement": "binding affinity for SHBG", "setting": "[1]", "value": "low binding affinity"}]}
{"compound": "C#C[C@]1(O)C=C[C@H]2[C@@H]3CCC4=CC(=O)CC[C@@H]4[C@H]3CC[C@@]21CC", "note": "[gestodene]", "values": [{"measurement": "binding affinity for SHBG", "setting": "[1]", "value": "reasonably high affinities"}, {"measurement": "binding affinity to SHBG", "setting": "[1]; Pollow 1989, Contraception", "value": "high binding affinity"}]}
{"compound": "C#C[C@]1(O)CC[C@H]2[C@@H]3CCC4=C(CCC(=O)C4)[C@H]3CC[C@@]21C", "note": "[norethynodrel]", "values": [{"measurement": "binding affinity to SHBG", "setting": "[1]; [8]", "value": "higher affinity for SHBG than EE"}]}
{"compound": "C#C[C@]1(OC(C)=O)CC[C@H]2[C@@H]3CCC4=CC(=O)CC[C@@H]4[C@H]3CC[C@@]21C", "note": "[Norethindrone Acetate]", "values": [{"measurement": "flux", "setting": "[5]; U.S. Pat. No. 5,474,783, enhancement not stated", "value": 0.05, "unit": "micrograms/cm^2/hr"}]}
{"compound": "C#C[C@]1(O)CC[C@H]2[C@@H]3CCC4=CC(=NO)CC[C@@H]4[C@H]3CC[C@@]21CC", "note": "(mixture of isomers) [17 deacetylnorgestimate]", "values": [{"measurement": "unenhanced flux", "setting": "[5]; from cited patents", "value": 0.1, "unit": "micrograms/cm^2/hr"}]}
{"compound": "C#C[C@]1(O)CC[C@H]2[C@@H]3CCC4=CC(=O)CC[C@@H]4[C@H]3C(=C)C[C@@]21CC", "note": "[3-keto desogestrel]", "values": [{"measurement": "binding affinity for SHBG", "setting": "[1]", "value": "reasonably high affinities"}, {"measurement": "binding affinity to SHBG", "setting": "[1]; Pollow 1989, Contraception", "value": "high binding affinity"}]}
{"compound": "CC(=O)O[C@]1(C(C)=O)CC[C@H]2[C@@H]3C=C(C)C4=CC(=O)CC[C@]4(C)[C@H]3CC[C@@]21C", "note": "[Megestrol acetate]", "values": [{"measurement": "binding affinity to SHBG", "setting": "[1]; [8]", "value": "do not have high binding affinity"}]}
{"compound": "CC(=O)[C@H]1CC[C@H]2[C@@H]3CCC4=CC(=O)CC[C@]4(C)[C@H]3CC[C@]12C", "note": "[progesterone]", "values": [{"measurement": "unenhanced flux", "setting": "[5]; from cited patents", "value": 0.14, "unit": "micrograms/cm^2/hr"}, {"measurement": "binding affinity to SHBG", "setting": "[1]; Pollow 1989, Contraception", "value": "lesser binding affinity"}]}
{"compound": "C#CC1(O)CC[C@H]2[C@@H]3CCC4=CC(=O)CC[C@@H]4[C@H]3CC[C@@]21CC", "note": "(mixture of isomers) [dl-norgestrel]", "values": [{"measurement": "binding affinity to SHBG", "setting": "[1]; [8]", "value": "higher affinity for SHBG than EE"}]}
